Here are results for 2 compounds from patent US4659734A, “Olinecarboxylic acid derivatives” (Nippon Shinyaku Co., Ltd., priority 1983, dated 1987).

Values after ≈ are worked out from the molar mass of the structure shown.

Data set [1] has as its system Bacillus subtilis ATCC 6633. The data set is described as follows: Minimum growth inhibiting concentration, Japan Chemotherapeutic Society method. Format: cell-based. Conditions: ATCC6633; Bacillus subtilis ATCC 6633, Gram +; 5% horse blood added agar medium; read-out: Minimum Growth Inhibiting Concn. Here is the method: (§1) The Antibacterial activity of the compounds of Examples 14, 13, 22b, 21 and 15 was determined in accordance with the method of Japan Chemotherapeutic Society (cf. Nippon Kagaku Ryoho Gakkai Shi, volume 29, number 1, pages 76 to 79, 1981) and the results are reported in Table 1, which follows. | *5% Horse blood added agar medium for sensitivity measurement being used.

The subject of data set [2] is Streptococcus pneumoniae Type I. Described as above. Format: cell-based. The following applies: Gram +, 5% horse blood added agar medium, read-out: Minimum Growth Inhibiting Concn. As for the experimental part:
as §1

Data set [3] concerns Streptococcus pyogenes S-23. The data set is described as above. Conditions: S23; Streptococcus pyogenes S-23, Gram +; 5% horse blood added agar medium; read-out: Minimum Growth Inhibiting Concn. Format: cell-based. As for the experimental part:
as §1

Data set [4] deals with Acinetobacter calcoacelicus 54. Described as above. The following applies: Acinetobacter calcoacelicus 54, Gram -; read-out: Minimum Growth Inhibiting Concn. Type of data set: cell-based. As for the experimental part:
(§2) The Antibacterial activity of the compounds of Examples 14, 13, 22b, 21 and 15 was determined in accordance with the method of Japan Chemotherapeutic Society (cf. Nippon Kagaku Ryoho Gakkai Shi, volume 29, number 1, pages 76 to 79, 1981) and the results are reported in Table 1, which follows.

Data set [5] has as its system Alcaligenes faecalis ATCC 8750. The description is as above. Type of data set: cell-based. Conditions: ATCC8750; Alcaligenes faecalis ATCC 8750, Gram -; read-out: Minimum Growth Inhibiting Concn. As for the experimental part: as §2
Data set [6] concerns Escherichia coli KC-14. Described as above. Format: cell-based. The following applies: KC14; Escherichia coli KC-14, Gram -; read-out: Minimum Growth Inhibiting Concn. Here is the method:
as §2

The test system of data set [7] is Escherichia coli NIHJ JC-2. The data set is described as above. Type of data set: cell-based. Conditions: NIHJJC2; Escherichia coli NIHJ JC-2, Gram -; read-out: Minimum Growth Inhibiting Concn. As for the experimental part:
as §2

The subject of data set [8] is Klebsiella pneumoniae K-1966. The data set is described as above. The following applies: K1966; Klebsiella pneumoniae K-1966, Gram -; read-out: Minimum Growth Inhibiting Concn. Format: cell-based. Here is the method: as §2
In data set [9] the test system is Listeria monocytogenes RIMD 1205020. Described as above. Type of data set: cell-based. Conditions: RIMD1205020; Listeria monocytogenes RIMD 1205020, Gram +; read-out: Minimum Growth Inhibiting Concn. Here is the method: as §2
Data set [10] concerns Micrococcus luteus ATCC 9341. The data set is described as above. Type of data set: cell-based. The following applies: ATCC9341; Micrococcus luteus ATCC 9341, Gram +; read-out: Minimum Growth Inhibiting Concn. Here is the method:
as §2

The test system of data set [11] is Proteus mirabilis 181. Described as above. Type of data set: cell-based. Conditions: Proteus mirabilis 181, Gram -; read-out: Minimum Growth Inhibiting Concn. As for the experimental part:
as §2

Data set [12] deals with Proteus vulgaris DX-19. The description is as above. Type of data set: cell-based. Conditions: DX19; Proteus vulgaris DX-19, Gram -; read-out: Minimum Growth Inhibiting Concn. As for the experimental part:
as §2

The subject of data set [13] is Pseudomonas aeruginosa E-2. The description is as above. Conditions: E2; Pseudomonas aeruginosa E-2, Gram -; read-out: Minimum Growth Inhibiting Concn. Format: cell-based. As for the experimental part:
as §2

The test system of data set [14] is Pseudomonas aeruginosa No. 12. The data set is described as above. The following applies: Pseudomonas aeruginosa No. 12, Gram -; read-out: Minimum Growth Inhibiting Concn. Format: cell-based. As for the experimental part: as §2
The test system of data set [15] is Pseudomonas cepacia ATCC 25416. The description is as above. Format: cell-based. Conditions: Burkholderia cepacia, ATCC25416; Pseudomonas cepacia ATCC 25416, Gram -; read-out: Minimum Growth Inhibiting Concn. As for the experimental part:
as §2

Data set [16] concerns Pseudomonas maltophilia ATCC 13637. Described as above. The following applies: Stenotrophomonas maltophilia, ATCC13637; Pseudomonas maltophilia ATCC 13637, Gram -; read-out: Minimum Growth Inhibiting Concn. Format: cell-based. Here is the method:
as §2

Data set [17] has as its system Serracia marcescens IFO 3736. The description is as above. Format: cell-based. The following applies: Serracia marcescens IFO 3736, Gram -; read-out: Minimum Growth Inhibiting Concn. Here is the method:
as §2

The test system of data set [18] is Staphylococcus aureus 209-PJC. The description is as above. Format: cell-based. Conditions: Gram +, read-out: Minimum Growth Inhibiting Concn. As for the experimental part: as §2
Data set [19] has as its system Staphylococcus aureus Smith. Described as above. Type of data set: cell-based. The following applies: Gram +, read-out: Minimum Growth Inhibiting Concn. As for the experimental part:
as §2

Data set [20] relates to Acimetobacter calcoaceticus. The data set is described as follows: Mouse intraperitoneal infection, survival after one week. The following applies: po, 1 × 10^7 per mouse, one dose per os 2 h after infection. Format: in vivo, ddY strain mice. As for the experimental part:
(§3) ddY--Strain mice (male; body weight 20±1 grams) of SPF were innoculated with the bacteria set forth in Table 2 by administration of a supension of the bacterial in 4% mucin solution into the abdominal cavity. A compound of the invention was given one time per os two hours after the infection, and, from the survival rate after one week. 50% effective doses (ED50) were calculated by the Behrens-Karber method.

For data set [21], the system named is Escherichia coli KC-14. The data set is described as above. Format: in vivo, ddY strain mice. Conditions: KC14, po; Escherichia coli KC-14, 5 × 10^4 per mouse; one dose per os 2 h after infection. Here is the method: as §3
For data set [22], the system named is Klebsiella pneumoniae K-1966. Described as above. Format: in vivo, ddY strain mice. Conditions: K1966, po; Klebsiella pneumoniae K-1966, 3 × 10^3 per mouse; one dose per os 2 h after infection. As for the experimental part: as §3
Data set [23] relates to Pseudomonas aeruginosa E-2. The description is as above. Format: in vivo, ddY strain mice. Conditions: E2, po; Pseudomonas aeruginosa E-2, 2 × 10^5 per mouse; one dose per os 2 h after infection; Behrens-Karber. As for the experimental part:
as §3

Data set [24] in a line: Acute toxicity. The following applies: mouse, in vivo; oral, groups of ten ddY male mice; read-out: 50% Lethal Doses (LD50). As for the experimental part:
Groups of ten ddY strain male mice (body weights: 20±1 grams) of the test compound were orally administered to determine the LD50. There was […] in which many mice died when the dose was 2000 mg/kg or less.

In data set [25] the test system is Proteus mirabilis 181. Briefly: Mouse intraperitoneal infection, survival after one week. Format: in vivo, ddY strain mice. Conditions: po; Proteus mirabilis 181, 2 × 10^7 per mouse; one dose per os 2 h after infection. Here is the method:
as §3

For data set [26], the system named is Serracia marcescens T-55. The data set is described as above. Type of data set: in vivo, ddY strain mice. Conditions: po; Serracia marcescens T-55, 5 × 10^6 per mouse; one dose per os 2 h after infection. Here is the method:
as §3

Data set [27] relates to Staphylococcus aureus Smith. Described as above. Type of data set: in vivo, ddY strain mice. The following applies: po, 3 × 10^6 per mouse, one dose per os 2 h after infection. Here is the method: as §3
The test system of data set [28] is Pseudomonas aeruginosa E-2. The data set is described as follows: Ascending urinary tract infection. Format: in vivo, ICR female mice. As for the experimental part: ICR Female mice (body weight 20±1 grams) of SPE strain were used in the experiments. The mice were not given any water for seventeen hours, then compulsorily urinated, anesthesized by the administration of 60 mg/kg of pentobarbital into the abdominal cavity, then 1.5×10^5 of Pseudomonas aeruginosa E-2 strain were impregnated into the bladder via the urinary tract, and the external urinary meatus was stopped for four hours by a pin clip, whereupon the mice were infected in the ascending urinary tract.
The compound of Example 22b was given once orally, 4 hours after infection, then twice a day, and the administration was continued for three days. On the fourth day, the kidney was isolated, homogenized in a physiological saline solution, and the number of bacteria was calculated on suitable medium such as, for example, Drigalski medium. If the number of bacteria per one gram of kidney was less than […], then the compound was judged as "effective".

Data set [29] in a line: Blood serum concentration, disc method. Format: in vivo, ddY strain mice. Conditions: mouse, serum, po, 60 mg/kg per os, average ± standard error. Here is the method:
In this experiment, ddY strain mice (male; body weight 30±2 grams) were used. Sixty mg/kg of the compound of Example 22b were given per os. The blood concentration was calculated from calibration curves obtained by the disc method using Escherichia coli NIHJ strain as tested bacteria and diluting the test compound of mice serum.

Data set [30] is described as follows: Excretion into urine and recovery, disc method. Type of data set: in vivo, ddY strain mice. The following applies: 60 mg/kg per os, average ± standard error. Here is the method:
In the measurement of excretion into urine, ddY strain mice (male; body weights 30±2 grams) were used. Sixty mg/kg of the compound of Example 22b was administered per os and the mice were fed in metabolic cages and their urine was collected.
Therefore, in the quantitative determination, the calibration curve of the compound of Example 21, calculated by the disc method using Escherichia coli NIHJ strain and using the compound dissolved in phosphoric acid buffer (pH 8.0; 1/15M) was used. Table 5 reports the excretion into urine with respect to time, total recovery amount and recovery rate of the compound of Example 22b.

Consider `C=CCN1CCN(c2cc3c(cc2F)c(=O)c(C(=O)O)c2sccn23)CC1` [Example 15, 8-(4-Allyl-1-piperazinyl)-7-fluoro-5-oxo-5H-thiazolo(3,2-a)-quinoline-4-carboxylic acid], for which the MIC in data set [1] is 0.0063 µg/mL (≈ 0.0163 µM); in data set [2] it was 0.39 µg/mL (≈ 1.01 µM); in data set [3] it was 0.1 µg/mL (≈ 0.258 µM); in data set [4] it was 0.39 µg/mL (≈ 1.01 µM); in data set [5], 0.78 µg/mL (≈ 2.01 µM); in [6], 0.05 µg/mL (≈ 0.129 µM). Besides, the MIC was found to be 0.2 µg/mL (≈ 0.516 µM) in data set [7]; 0.05 µg/mL (≈ 0.129 µM) in data set [8]; 0.39 µg/mL (≈ 1.01 µM) in data set [9]; 1.56 µg/mL (≈ 4.03 µM) in [10]; 0.2 µg/mL (≈ 0.516 µM) in data set [11]; 0.05 µg/mL (≈ 0.129 µM) in data set [12]. The MIC in [13] came out at 1.56 µg/mL (≈ 4.03 µM); in data set [14], 0.78 µg/mL (≈ 2.01 µM); in [15] it was 1.56 µg/mL (≈ 4.03 µM); in [16], 0.0063 µg/mL (≈ 0.0163 µM); in data set [17] it was 0.39 µg/mL (≈ 1.01 µM); in data set [18], 0.025 µg/mL (≈ 0.0645 µM). The MIC in [19] came to 0.013 µg/mL (≈ 0.0336 µM). The ED50 in data set [20] was greater than 35 mg/kg; in data set [21], 2 mg/kg; in data set [22], 3.3 mg/kg; in [23], 10.7 mg/kg. Also, the LD50 in [24] was greater than 2000 mg/kg.

In the case of `CCn1cc(C(=O)O)c(=O)c2cc(F)c(N3CCNCC3)cc21` [Comparison Compd., 1-ethyl-6-fluoro-7-(1-piperazinyl)-4-oxo-1,4-dihydroquinoline-3-carboxylicacid, reference compound], the ED50 in data set [20] was greater than 35 mg/kg; in data set [21] it was 3.3 mg/kg; in data set [22], greater than 13 mg/kg; in [25] it was 29 mg/kg; in [23], 260 mg/kg; in data set [26], 6 mg/kg. The ED50 in data set [27] was greater than 25 mg/kg; in [28] (Pseudomonas aeruginosa, E2, in Mus musculus, 72 h, ascending urinary tract infection, oral, three days, read-out: 50% Effective Dose) it was 58 mg/kg. The “Number Of Mice Where Compound Was Effective/Total Mice Tested” value in [28] (3.13 mg/kg oral) was 0/7; in data set [28] (6.25 mg/kg oral), 0/7; in data set [28] (12.5 mg/kg oral), 0/7; in [28] (25 mg/kg oral) it was 1/7; in data set [28] (50 mg/kg oral), 4/7; in data set [28] (100 mg/kg oral, 4 h after infection then twice a day, three days), 6/7. This compound registered a concentration at 0.25 h in data set [29] (0.25 hours) of 640 ± 90 ng/mL. The compound also showed a concentration at 0.5 h in [29] (0.5 hours) of 900 ± 290 ng/mL. In addition, the concentration at 1 h in [29] (1 hour) was 580 ± 100 ng/mL. The same compound came in with a concentration at 2 h in [29] (2 hours) of 330 ± 150 ng/mL. In addition, the concentration at 4 h in data set [29] (4 hours) turned out to be 90 ± 10 ng/mL. The “Amount excreted into Urine” value was determined as 60.25 ± 17.9 µg in [30] (0-3 hrs), 29.25 ± 9.0 µg in data set [30] (3-6 hrs) and 19.78 ± 6.6 µg in data set [30] (6-24 hrs).

Broadly, the LD50 is the dose at which mortality reaches 50%.
